{"source": "patent US11471460B2", "about": "“Autophagy modulators for use in treating cancer” (The United States of America,as represented by the …, priority 2017, dated 2022)", "key": {"[1]": {"system": "LC3-II and p62 in U2OS cells", "test": "Accumulation of autophagosome markers LC3-II and p62, Western immuno-blotting", "type": "cell-based, human", "procedure": "Cells were cultured for 4 hrs before total cell extracts were subjected to Western immuno-blotting for LC3, p62 and β-actin. Blot was developed with film. […] (C) U2OS cells were cultured for the times indicated in the presence of 1.2 μM compound 1 to produce 80% of the maximum observed in FIG. 10A. Total cell extracts were assayed at the times indicated. […] All blots were stained with Ponceau S […].\nTotal cell lysates were prepared (in 4× dye). Proteins were fractionated at 200V in a NuPAGE 4-12% bis-tris polyacrylamide gel (NP0323, Novex) using NuPAGE MES running buffer (NP0002, Novex) and then stained with PageBlue (24260, Thermo Scientific) in order to quantify the relative amount of histones in each sample. […] Proteins were wet-transferred onto nitrocellulose membranes (162-0112, Bio-Rad) using NuPAGE transfer buffer (NP-0006-1, Novex) for 1 hour at 30V. Membranes were then stained with dilute Ponceau S solution, blocked in 5% milk for 30 minutes at room temperature, and incubated overnight at 4° C. in primary antibody. Membranes were washed with phosphate buffered saline with tween 20 (PBST) three times for 10 min. each, incubated with secondary antibodies in 5% milk for 1 hour, washed three times with PBST again, covered in ECL (SuperSignal West Pico chemiluminescent substrate, 34080, Thermo Scientific) and exposed to film (HyBlot ES, E3218, Denville Scientific)."}, "[2]": {"system": "lysosomes in U2OS cells", "test": "Ratiometric analysis of lysosomal pH (Oregon Green 488 dextran)", "type": "cell-based, human", "conditions": "1 μM", "procedure": "U2OS cells were cultured for 4 hr with vehicle, 1 μM compound 1, or 50 mM ammonium chloride. The results of two independent experiments were averaged together. Data were analyzed by one-way ANOVA (p=0.0005) and Tukey's post-hoc test (p<0.0001). Scale bars indicate 10 μm. The results of three independent experiments were averaged together. […] Cells that had been transfected with LAMP1-RFP expression vector were then stained with LysoSensor Green DND-189, a fluorescent probe that fluoresces only in the acidic compartments of live cells. […] Bars represent 20 μm.\nTo determine the pH of individual lysosomes, dual-wavelength ratio imaging was conducted as previously describe (102), with minor modifications. U2OS and RAW264.7 cells were cultured in imaging chambers (Cellvis, Mountain View Calif., Cat #C4-1.5/h-N) in complete culture medium at 37° C. and 5% CO2. Cells were incubated overnight with 50 μg/mL Oregon Green 488 dextran (Invitrogen, Carlsbad, Calif., D7170). The following day, the cells were cultured with dextran-free complete culture medium for at least 2 h to ensure lysosomal targeting of the probe. Cells were then cultured with compound 1 for the indicated times and concentrations. […]"}, "[3]": {"system": "melanoma A375 cells", "test": "A375 cell proliferation (crystal violet plate assay)", "type": "cell-based, human"}, "[4]": {"system": "human foreskin fibroblasts", "test": "Proliferation/viability of human foreskin fibroblasts", "type": "cell-based", "conditions": "Fibroblast; human foreskin fibroblasts; read-out: EC50", "procedure": "Concentration of each compound in the plate assay is indicated below the compound 1 plate.\nCells were obtained from the American Type Culture Collection. BORCS5-KO HeLa cells have been described previously. Osteosarcoma U2OS were routinely seeded in 6-well plates (0.5×10^5 cells/well) and cultured in Dulbecco's Modified Eagle's medium supplemented with L-Glutamine, 4.5 g/L Glucose, Sodium Pyruvate, Phenol Red, and either heat-inactivated or normal 10% fetal calf serum at 37° C. in 5% CO2. Approximately 15-19 hours later, the indicated compound was added in 1:1000 dilutions. […] Melanoma A375, embryonic kidney 293T and human foreskin fibroblast Hs27 cells were cultured in the same medium, except that cells were seeded into 12-well plates at 10^3 cells/well."}, "[5]": {"system": "breast adenocarcinoma cells", "test": "Viability of breast adenocarcinoma cells", "type": "cell-based", "conditions": "Homo sapiens; breast adenocarcinoma cells; read-out: EC50", "procedure": "FIG. 18 summarizes results from 13 human cell lines. All cells were seeded at the same cell density in a rich culture medium and assayed under identical conditions. Compound 1 efficacy is the ratio of cell viability with compound 1 to cell viability with chloroquine derivatives."}, "[6]": {"system": "melanoma A375 cells", "test": "Cytoplasmic vacuolization of A375 cells", "type": "cell-based, human"}, "[7]": {"system": "melanoma A375 tumors", "test": "Expansion of preformed A375 tumors in inbred nude mice", "type": "in vivo", "conditions": "20 or 40 mg/kg intraperitoneally each day for 14 days", "procedure": "(A) Melanoma A375 cells were cultured to 80% confluency and then inoculated subcutaneously into both flanks of inbred nude mice. Palpable tumors (˜40-50 mm^3) appeared within 7 days. (B) Either vehicle or 20 or 40 mg of compound 1 per kg of the mouse was injected intraperitoneally each day for a period of 14 days. Compound 1 was dissolved in sunflower seed oil. Tumors were excised on day 21. […] Error bars indicate the SEM for 6 tumors.\nTo determine whether or not compound 1 could inhibit expansion of a preformed tumor that arose from autophagy-dependent cancer cells, melanoma A375 cells were inoculated into the flanks of immuno-compromised mice and allowed to form a palpable tumor. Mice were then injected intraperitoneally once a day with varying amount of compound 1."}, "[8]": {"system": "melanoma A375 tumors", "test": "Expansion of preformed A375 tumors in outbred nude mice", "type": "in vivo", "procedure": "Melanoma A375 cells were inoculated subcutaneously into outbred nude mice on day 0 (broad arrow). Intraperitoneal injections (arrows) of vehicle (open circles), 20 mg compound 1 (grey circles), or 40 mg compound 1/kg (solid circle) of mouse weight were administered daily beginning with day 7 when palpable tumors were present. Each group contained three mice. SEMs are indicated. Error bars indicate the SEM for 6 tumors.\nThe genetic diversity of human populations is greater than the genetic diversity of inbred animals. Therefore, the experiment in FIG. 20 with inbred nude mice was repeated with outbred nude mice."}, "[9]": {"system": "melanoma A375 tumors", "test": "Vacuolation and autophagy markers within tumors of treated mice", "type": "in vivo", "text": "Cytoplasmic vacuolation was clear in tumors from compound 1-treated mice, and the extent of vacuolation was clearly greater at with greater concentrations of compound 1.\nTo determine whether or not compound 1 injected intraperitoneally was active within the tumor, tumor slices were stained with hematoxylin and eosin to visualize cellular structure."}}, "note": "Entries after “also recorded” stand apart in the source; their conditions may differ.", "data": [{"compound": "C1=Nc2ccccc2/C1=C/NNc1nc(Nc2ccccc2)nc(N2CCOCC2)n1", "note": "[compound 1]", "values": [{"measurement": "Delay of p62 accumulation relative to LC3-II", "setting": "[1]", "value": "about 3 hours"}, {"measurement": "Sensitivity of inhibition of lysosome fission relative to accumulation of autophagosomes", "setting": "[1]", "value": "at least 5 fold"}, {"measurement": "Concentration required for near maximum levels of LC3-II accumulation", "setting": "[1]; 4 hrs", "value": "0.1 to 0.5", "unit": "µM"}, {"measurement": "Accumulation of LC3-II", "setting": "[1]; U2OS cells", "value": "comparable increase in LC3-II"}, {"measurement": "Time to accumulation of LC3-II and p62", "setting": "[1]; U2OS cells", "value": "≤ 4", "unit": "h"}, {"measurement": "Mean pH of lysosomes", "setting": "[2]; 4 h, untreated cells 5.3", "value": 5.0}, {"measurement": "Effect on lysosomal acidity", "setting": "[2]; 4 hours", "value": "did not affect lysosomal acidity significantly"}, {"measurement": "Inhibition of proliferation of melanoma A375 cells", "setting": "[3]", "value": "inhibited A375 cell proliferation"}, {"measurement": "Efficacy at inhibiting A375 cell proliferation relative to HCQ or CQ", "setting": "[3]; plate assays", "value": "at least 100 times"}, {"measurement": "EC50", "setting": "[4]", "value": "> 10", "unit": "µM"}, {"measurement": "EC50", "setting": "[5]", "value": "> 10", "unit": "µM"}, {"measurement": "Cytoplasmic vacuolization of A375 cells", "setting": "[6]", "value": "induced extensive cytoplasmic vacuolization"}, {"measurement": "Ill effects on mice", "setting": "[7]", "value": "no exhibited ill effects"}, {"measurement": "Expansion of preformed tumors", "setting": "[7]; inbred nude mice", "value": "inhibited by compound 1 in a dose dependent manner"}, {"measurement": "Expansion of preformed tumors", "setting": "[8]; 20 or 40 mg/kg intraperitoneally daily, outbred nude mice", "value": "inhibited by compound 1 in a dose dependent manner; also recorded: inhibited growth of tumors"}, {"measurement": "Ill effects on mice", "setting": "[8]; mice weighed each day during injections", "value": "no visible ill effects"}, {"measurement": "LC3-II and p62 proteins in tumor lysates", "setting": "[9]; Western blot", "value": "increased levels of LC3-H and p62 proteins"}, {"measurement": "Cytoplasmic vacuolation in tumor slices", "setting": "[9]; hematoxylin and eosin", "value": "clearly evident"}]}]}
